The text below walks through data of patent US9539260B2, “Dihydro-benzo-oxazine and dihydro-pyrido-oxazine derivatives” (Novartis AG, priority 2012, dated 2017).

The IC50 is the concentration that inhibits the measured activity by half.

For one assay, the target named is PI3K delta (Homo sapiens (Human), UniProt O00329). Description: Enzymatic PI3K delta isoform inhibition (lipid kinase activity, Kinase-Glo luminescence). The assay is classed as biochemical. The settings on record: Enzymatic assay. The protocol:
(§1) 1.1 Test of Lipid Kinase Activity […]
(§2) In a more preferred assay, the kinase reaction is performed in a final volume of 10 μl per well of a low volume non-binding CORNING, 384 well black plate (Cat. No. #3676). The final concentrations of ATP and phosphatidyl inositol (PI) in the assay are 1 μM and 10 μg/mL, respectively. The reaction is started by the addition of ATP.
(§3) The components of the assay are added per well as follows:
(§4) The Z′ value is a universal measurement of the robustness of an assay. A Z′ between 0.5 and 1.0 is considered an excellent assay.
(§5) IC50 is determined by a four parameter curve fitting routine that comes along with “excel fit”. A four parameter logistic equation is used to calculate IC50 values (IDBS XLfit) of the percentage inhibition of each compound at 8 concentrations (usually 10, 3.0, 1.0, 0.3, 0.1, 0.030, 0.010 and 0.003 μM). Alternatively, IC50 values are calculated using idbsXLfit model 204, which is a 4 parameter logistic model.
(§6) Yet alternatively, for an ATP depletion assay, compounds of the formula I to be tested are dissolved in DMSO and directly distributed into a white 384-well plate at 0.5 μl per well. To start the reaction, 10 μl of 10 nM PI3 kinase and 5 μg/mL 1-alpha-phosphatidylinositol (PI) are added into each well followed by 10 μl of 2 μM ATP. The reaction is performed until approx 50% of the ATP is depleted, and then stopped by the addition of 20 μl of Kinase-Glo solution (Promega Corp., Madison, Wis., USA). The stopped reaction is incubated for 5 minutes and the remaining ATP is then detected via luminescence. IC50 values are then determined.

The target in a further assay is PI3K alpha (Homo sapiens (Human), UniProt P42336). Briefly: Enzymatic PI3K alpha isoform inhibition (lipid kinase activity, Kinase-Glo luminescence). The assay is classed as biochemical. Particulars: Enzymatic assay. The protocol: as §1, §2, §3, §4, §5, §6
For orientation: In Kinase-Glo more light means more ATP remaining.

PI3K alpha, sequence (P42336 other isoform, or with tags, fused parts or gaps): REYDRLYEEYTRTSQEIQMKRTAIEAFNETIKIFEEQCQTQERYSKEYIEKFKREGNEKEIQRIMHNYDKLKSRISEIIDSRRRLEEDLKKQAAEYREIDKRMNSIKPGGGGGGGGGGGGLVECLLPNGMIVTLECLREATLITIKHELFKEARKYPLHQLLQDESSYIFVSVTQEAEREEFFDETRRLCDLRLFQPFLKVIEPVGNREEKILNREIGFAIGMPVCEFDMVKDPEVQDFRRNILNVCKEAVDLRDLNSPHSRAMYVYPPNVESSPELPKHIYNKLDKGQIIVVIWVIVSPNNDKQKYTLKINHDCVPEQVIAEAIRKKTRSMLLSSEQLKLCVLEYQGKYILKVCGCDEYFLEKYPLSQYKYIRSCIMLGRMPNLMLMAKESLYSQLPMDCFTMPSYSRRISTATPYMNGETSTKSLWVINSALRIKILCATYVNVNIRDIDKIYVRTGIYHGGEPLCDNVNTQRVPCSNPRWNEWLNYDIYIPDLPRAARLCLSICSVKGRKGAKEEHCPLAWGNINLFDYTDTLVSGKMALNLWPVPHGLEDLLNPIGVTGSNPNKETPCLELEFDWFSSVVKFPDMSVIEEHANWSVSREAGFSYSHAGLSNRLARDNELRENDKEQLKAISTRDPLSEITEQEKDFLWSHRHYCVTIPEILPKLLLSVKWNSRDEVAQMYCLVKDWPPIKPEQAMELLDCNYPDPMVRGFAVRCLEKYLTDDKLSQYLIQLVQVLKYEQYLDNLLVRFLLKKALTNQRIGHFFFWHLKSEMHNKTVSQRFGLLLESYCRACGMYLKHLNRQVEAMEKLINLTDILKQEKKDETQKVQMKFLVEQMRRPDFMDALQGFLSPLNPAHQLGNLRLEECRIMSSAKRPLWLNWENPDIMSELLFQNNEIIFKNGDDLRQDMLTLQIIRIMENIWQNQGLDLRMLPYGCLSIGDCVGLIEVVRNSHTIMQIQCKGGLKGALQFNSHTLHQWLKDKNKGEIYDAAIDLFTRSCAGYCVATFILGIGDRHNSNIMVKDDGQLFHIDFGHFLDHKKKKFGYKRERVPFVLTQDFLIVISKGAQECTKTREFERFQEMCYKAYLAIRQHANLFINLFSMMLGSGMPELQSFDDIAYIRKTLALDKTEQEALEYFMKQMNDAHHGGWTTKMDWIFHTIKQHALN
PI3K delta, sequence (O00329 other isoform, or with tags, fused parts or gaps linker GGGGGG): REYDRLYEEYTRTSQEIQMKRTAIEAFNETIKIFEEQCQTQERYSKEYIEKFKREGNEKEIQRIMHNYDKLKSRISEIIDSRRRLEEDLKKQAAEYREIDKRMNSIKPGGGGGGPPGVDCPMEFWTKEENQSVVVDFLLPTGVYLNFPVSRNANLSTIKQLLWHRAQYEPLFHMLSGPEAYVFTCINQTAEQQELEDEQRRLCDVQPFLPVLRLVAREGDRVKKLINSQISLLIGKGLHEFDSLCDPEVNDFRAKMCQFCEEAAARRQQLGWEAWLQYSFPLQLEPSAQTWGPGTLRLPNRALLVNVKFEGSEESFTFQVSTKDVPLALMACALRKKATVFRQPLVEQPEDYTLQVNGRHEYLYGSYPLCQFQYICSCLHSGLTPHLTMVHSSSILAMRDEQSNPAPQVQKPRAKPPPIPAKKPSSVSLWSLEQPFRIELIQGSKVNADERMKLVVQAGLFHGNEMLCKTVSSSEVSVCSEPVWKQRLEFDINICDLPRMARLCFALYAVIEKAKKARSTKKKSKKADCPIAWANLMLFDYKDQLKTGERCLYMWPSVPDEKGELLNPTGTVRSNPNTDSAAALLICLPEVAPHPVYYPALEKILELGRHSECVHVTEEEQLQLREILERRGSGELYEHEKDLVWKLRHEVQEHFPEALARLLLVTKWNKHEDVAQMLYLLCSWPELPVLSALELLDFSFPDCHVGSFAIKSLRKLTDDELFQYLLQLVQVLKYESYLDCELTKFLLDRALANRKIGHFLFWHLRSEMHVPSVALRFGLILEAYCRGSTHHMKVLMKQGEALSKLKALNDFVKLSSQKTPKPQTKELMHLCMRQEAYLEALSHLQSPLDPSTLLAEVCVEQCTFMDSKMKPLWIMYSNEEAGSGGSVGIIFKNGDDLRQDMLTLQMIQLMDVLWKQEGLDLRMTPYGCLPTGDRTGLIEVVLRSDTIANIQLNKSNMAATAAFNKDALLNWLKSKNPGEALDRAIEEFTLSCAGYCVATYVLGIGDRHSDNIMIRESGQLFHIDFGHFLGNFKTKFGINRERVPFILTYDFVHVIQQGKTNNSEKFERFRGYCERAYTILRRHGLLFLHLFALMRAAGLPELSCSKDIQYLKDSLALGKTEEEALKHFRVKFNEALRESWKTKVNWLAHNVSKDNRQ

As to `COc1ncc(N2CCOc3ccc(O[C@H]4CCN(C(=O)C5COCCO5)C4)cc32)cc1F` (single isomer, unassigned) [Example H16], the concentration for half-maximal inhibition (IC50) is 16 nM on PI3K delta and 871 nM on PI3K alpha.
Take `COc1ncc(N2C[C@H](C)Oc3ccc(O[C@H]4CCN(C(=O)C5CCOCC5)C4)cc32)cc1C#N` (single isomer, unassigned) [Example O2]: the 50% inhibitory concentration (IC50) against PI3K delta was determined as 49 nM; on PI3K alpha, 5690 nM.
With `CN(C)S(=O)(=O)c1cncc(N2CCOc3ccc(O[C@H]4CCN(C(=O)C5CCOCC5)C4)cc32)c1` [Example A2, 5-{6-[(S)-1-(Tetrahydro-pyran-4-carbonyl)-pyrrolidin-3-yloxy]-2,3-dihydro-benzo[1,4]oxazin-4-yl}-pyridine-3-sulfonic acid dimethylamide], the IC50 at PI3K delta was determined as 6 nM; against PI3K alpha it was 47 nM.
Regarding `N#Cc1cncc(N2CCOc3ccc(O[C@H]4CCN(C(=O)C5CCOCC5)C4)cc32)c1` [Example A7, 5-{6-[(S)-1-(Tetrahydro-pyran-4-carbonyl)-pyrrolidin-3-yloxy]-2,3-dihydro-benzo[1,4]oxazin-4-yl}-nicotinonitrile], the IC50 was 31 nM against PI3K delta and 1920 nM against PI3K alpha.
Turning to `CCC(=O)N1CC[C@H](Oc2ccc3c(c2)N(c2ccc(S(C)(=O)=O)nc2)CCO3)C1` [Example A8, 1-{(S)-3-[4-(6-Methanesulfonyl-pyridin-3-yl)-3,4-dihydro-2H-benzo[1,4]oxazin-6-yloxy]-pyrrolidin-1-yl}-propan-1-one], the IC50 on PI3K delta came to 40 nM; against PI3K alpha it was 5930 nM.
Regarding `CCC(=O)N1CC[C@H](Oc2ccc3c(c2)N(c2cnc(OC)c(C#N)c2)CCO3)C1` [Example A9, 2-Methoxy-5-[6-((S)-1-propionyl-pyrrolidin-3-yloxy)-2,3-dihydro-benzo[1,4]oxazin-4-yl]-nicotinonitrile], the concentration for half-maximal inhibition (IC50) against PI3K delta was 14 nM; against PI3K alpha, 410 nM.
For `CCC(=O)N1CC[C@H](Oc2ccc3c(c2)N(c2cnc(OC)c(C(F)(F)F)c2)CCO3)C1` [Example A10, 1-{(S)-3-[4-(6-Methoxy-5-trifluoromethyl-pyridin-3-yl)-3,4-dihydro-2H-benzo[1,4]oxazin-6-yloxy]-pyrrolidin-1-yl}-propan-1-one] the same measures were 18 nM and 220 nM.
For `CCC(=O)N1CC[C@H](Oc2ccc3c(c2)N(c2cnc(OC)c(F)c2)CCO3)C1` [Example A11, 1-{(S)-3-[4-(5-Fluoro-6-methoxy-pyridin-3-yl)-3,4-dihydro-2H-benzo[1,4]oxazin-6-yloxy]-pyrrolidin-1-yl}-propan-1-one] the same measures were 69 nM and 2280 nM.
Turning to `CCC(=O)N1CC[C@H](Oc2ccc3c(c2)N(c2cnc(OC)c(Cl)c2)CCO3)C1` [Example A12, 1-{(S)-3-[4-(5-Chloro-6-methoxy-pyridin-3-yl)-3,4-dihydro-2H-benzo[1,4]oxazin-6-yloxy]-pyrrolidin-1-yl}-propan-1-one], the values for the 50% inhibitory concentration (IC50) at PI3K delta and on PI3K alpha were 3 nM and 182 nM, respectively.
For `CCC(=O)N1CC[C@H](Oc2ccc3c(c2)N(c2cnc(OC)c(C)c2)CCO3)C1` [Example A13, 1-{(S)-3-[4-(6-Methoxy-5-methyl-pyridin-3-yl)-3,4-dihydro-2H-benzo[1,4]oxazin-6-yloxy]-pyrrolidin-1-yl}-propan-1-one] the same measures were 5 nM and 292 nM.
For `CCC(=O)N1CC[C@H](Oc2ccc3c(c2)N(c2cnc(N)c(OC)c2)CCO3)C1` [Example A14, 1-{(S)-3-[4-(6-Amino-5-methoxy-pyridin-3-yl)-3,4-dihydro-2H-benzo[1,4]oxazin-6-yloxy]-pyrrolidin-1-yl}-propan-1-one] the same measures were 5400 nM and over 9100 nM.
In the case of `CCC(=O)N1CC[C@H](Oc2ccc3c(c2)N(c2ccc(OC)c(S(=O)(=O)N(C)C)c2)CCO3)C1` [Example A15, 2-Methoxy-N,N-dimethyl-5-[6-((S)-1-propionyl-pyrrolidin-3-yloxy)-2,3-dihydro-benzo[1,4]oxazin-4-yl]-benzenesulfonamide], the concentration for half-maximal inhibition (IC50) on PI3K delta was 184 nM; against PI3K alpha, 4890 nM.
For `CCC(=O)N1CC[C@H](Oc2ccc3c(c2)N(c2ccc(OC)c(S(C)(=O)=O)c2)CCO3)C1` [Example A16, 1-{(S)-3-[4-(3-Methanesulfonyl-4-methoxy-phenyl)-3,4-dihydro-2H-benzo[1,4]oxazin-6-yloxy]-pyrrolidin-1-yl}-propan-1-one] the same measures were 323 nM and over 9100 nM.
For `CCC(=O)N1CC[C@H](Oc2ccc3c(c2)N(c2cnc(N)c(C(F)(F)F)c2)CCO3)C1` [Example A17, 1-{(S)-3-[4-(6-Amino-5-trifluoromethyl-pyridin-3-yl)-3,4-dihydro-2H-benzo[1,4]oxazin-6-yloxy]-pyrrolidin-1-yl}-propan-1-one] the same measures were 14 nM and 104 nM.
Turning to `CCC(=O)N1CC[C@H](Oc2ccc3c(c2)N(c2cnc(OC)c(S(=O)(=O)N4CCN(C)CC4)c2)CCO3)C1` [Example A18, 1-((S)-3-{4-[6-Methoxy-5-(4-methyl-piperazine-1-sulfonyl)-pyridin-3-yl]-3,4-dihydro-2H-benzo[1,4]oxazin-6-yloxy}-pyrrolidin-1-yl)-propan-1-one], the half-maximal inhibitory concentration (IC50) against PI3K delta was 11 nM; against PI3K alpha it was 895 nM.
Consider `Cc1cc(N2CCOc3ccc(O[C@H]4CCN(C(=O)C5CCOCC5)C4)cc32)ccn1` [Example A19, {(S)-3-[4-(2-Methyl-pyridin-4-yl)-3,4-dihydro-2H-benzo[1,4]oxazin-6-yloxy]-pyrrolidin-1-yl}-(tetrahydro-pyran-4-yl)-methanone], for which the results for the IC50 against PI3K delta and at PI3K alpha were 380 nM and 7550 nM, respectively.
With `COc1cc(N2CCOc3ccc(O[C@H]4CCN(C(=O)C5CCOCC5)C4)cc32)ccn1` [Example A22, {(S)-3-[4-(2-Methoxy-pyridin-4-yl)-3,4-dihydro-2H-benzo[1,4]oxazin-6-yloxy]-pyrrolidin-1-yl}-(tetrahydro-pyran-4-yl)-methanone], the concentration for half-maximal inhibition (IC50) against PI3K delta is 21 nM; against PI3K alpha, 757 nM.
For `Nc1ncc(N2CCOc3ccc(O[C@H]4CCN(C(=O)C5CCOCC5)C4)cc32)cc1C(F)(F)F` [Example A23, {(S)-3-[4-(6-Amino-5-trifluoromethyl-pyridin-3-yl)-3,4-dihydro-2H-benzo[1,4]oxazin-6-yloxy]-pyrrolidin-1-yl}-(tetrahydro-pyran-4-yl)-methanone] the same measures were 170 nM and 1570 nM.
For `CCC(=O)N1CC[C@H](Oc2ccc3c(c2)N(c2ccc(C)c(S(=O)(=O)N4CCCCC4)c2)CCO3)C1` [Example A24, 1-((S)-3-{4-[4-Methyl-3-(piperidine-1-sulfonyl)-phenyl]-3,4-dihydro-2H-benzo[1,4]oxazin-6-yloxy}-pyrrolidin-1-yl)-propan-1-one], the results for the IC50 against PI3K delta and against PI3K alpha were 317 nM and 6880 nM, respectively.
For `CCC(=O)N1CC[C@H](Oc2ccc3c(c2)N(c2cncc(S(=O)(=O)N4CCOCC4)c2)CCO3)C1` [Example A26, 1-((S)-3-{4-[5-(Morpholine-4-sulfonyl)-pyridin-3-yl]-3,4-dihydro-2H-benzo[1,4]oxazin-6-yloxy}-pyrrolidin-1-yl)-propan-1-one] the same measures were 22 nM and 152 nM.
In the case of `CCC(=O)N1CC[C@H](Oc2ccc3c(c2)N(c2cncc(S(=O)(=O)N4CCN(C)CC4)c2)CCO3)C1` [Example A28, 1-((S)-3-{4-[5-(4-Methyl-piperazine-1-sulfonyl)-pyridin-3-yl]-3,4-dihydro-2H-benzo[1,4]oxazin-6-yloxy}-pyrrolidin-1-yl)-propan-1-one], the IC50 against PI3K delta is 16 nM; against PI3K alpha, 531 nM.
For `CCC(=O)N1CC[C@H](Oc2ccc3c(c2)N(c2ccc(OC)c(S(=O)(=O)N(C)OC)c2)CCO3)C1` [Example A29, 2,N-Dimethoxy-N-methyl-5-[6-((S)-1-propionyl-pyrrolidin-3-yloxy)-2,3-dihydro-benzo[1,4]oxazin-4-yl]-benzenesulfonamide] the same measures were 42 nM and 2730 nM.
For `CCC(=O)N1CC[C@H](Oc2ccc3c(c2)N(c2cncc(S(=O)(=O)N(C)OC)c2)CCO3)C1` [Example A30, 5-[6-((S)-1-Propionyl-pyrrolidin-3-yloxy)-2,3-dihydro-benzo[1,4]oxazin-4-yl]-pyridine-3-sulfonic acid methoxy-methyl-amide] the same measures were 31 nM and 260 nM.
For `CCC(=O)N1CC[C@H](Oc2ccc3c(c2)N(c2ccc(OC)c(S(=O)(=O)NOC)c2)CCO3)C1` [Example A31, 2,N-Dimethoxy-5-[6-((S)-1-propionyl-pyrrolidin-3-yloxy)-2,3-dihydro-benzo[1,4]oxazin-4-yl]-benzenesulfonamide] the same measures were 88 nM and 6020 nM.
